Data taken from the supplement of paper PMC10307832.

Compound: C1CCC(CC1)N(CCNCCC2=C3C(=C(C=C2)O)NC(=O)CO3)C(=O)CCNCCC4=CC(=C(C=C4)Cl)Cl [AZ505] + Cc1cc(Nc2cc(N3CCN(C)CC3)nc(Sc3ccc(NC(=O)C4CC4)cc3)n2)n[nH]1 [Tozasertib] (partner 0.1 µM)
Experiment: relative viability (nuclei count vs DMSO), 5 days (fraction); higher = more cells survive
Conditions: first compound 2.53 µM
Outline: (§1)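 Five library-drug doses in √10 steps were combined with a fixed anchor-drug dose, or a single drug was given alone, by pin tool to lung cancer cell lines in 1536-well plates the day after seeding. Nuclei were stained and counted after 5 days. Relative viability is the nuclei count in treated wells over that in vehicle wells, taken as the median of duplicate plates.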

Cell Line | relative viability
NCI-H2023 | 0.298

Same assay, conditions: first compound 8 µM

Cell Line | relative viability
NCI-H2342 | 0.618
NCI-H1623 | 0.443
NCI-H727 | 0.581
NCI-H1650 | 0.321
NCI-H1993 | 0.529
SK-LU-1 | 0.235
NCI-H838 | 0.265
LCLC-103H | 0.459
NCI-H520 | 0.463
NCI-H2126 | 0.892
EMC-BAC-2 | 0.275
NCI-H2085 | 0.891
HCC-366 | 0.0879
NCI-H1666 | 0.584
NCI-H596 | 0.726
LK-2 | 0.184

Cell Line | relative viability
NCI-H2087 | 0.245
NCI-H1648 | 0.703
SK-MES-1 | 0.884
H3255 | 0.577
COR-L23 | 0.146
COR-L 105 | 0.403
LOU-NH91 | 0.625
ChaGo-K-1 | 0.238
HCC-44 | 1.04
NCI-H522 | 0.674
SW 900 | 0.544
NCI-H2009 | 0.64
NCI-H661 | 0.367
SW 1573 | 0.144
NCI-H2228 | 0.236
NCI-H2023 | 0.322

Compound: C1CCC(CC1)N(CCNCCC2=C3C(=C(C=C2)O)NC(=O)CO3)C(=O)CCNCCC4=CC(=C(C=C4)Cl)Cl [AZ505] + NC(=O)Nc1cc(-c2cccc(F)c2)sc1C(=O)N[C@H]1CCCNC1 [AZD7762] (partner 0.2 µM)
Experiment: as above
Conditions: first compound 0.08 µM
Outline: as §1

Cell Line | relative viability
NCI-H2342 | 0.538
NCI-H727 | 0.661
NCI-H1703 | 0.106
NCI-H1993 | 0.629
NCI-H838 | 0.888
LCLC-103H | 0.711
NCI-H2126 | 0.939
EMC-BAC-2 | 0.957
NCI-H2085 | 0.879
HCC-366 | 0.357
NCI-H1666 | 0.791
NCI-H596 | 1.18
LK-2 | 0.512
NCI-H2087 | 1.22
H3255 | 0.737
LOU-NH91 | 0.734
ChaGo-K-1 | 0.73
HCC-44 | 1
NCI-H522 | 0.678
SW 900 | 0.576
NCI-H1792 | 0.627

Same assay, conditions: first compound 0.253 µM

Cell Line | relative viability
NCI-H2342 | 0.488
NCI-H727 | 0.418
NCI-H1993 | 0.722
NCI-H838 | 0.955
LCLC-103H | 0.719
NCI-H2126 | 1.02
EMC-BAC-2 | 1.17
NCI-H2085 | 0.966
HCC-366 | 0.215
NCI-H1666 | 0.853
LK-2 | 0.264
NCI-H2087 | 1.24
NCI-H1648 | 0.755
H3255 | 0.883
LOU-NH91 | 0.737
ChaGo-K-1 | 0.836
HCC-44 | 0.964
NCI-H522 | 0.747
SW 900 | 0.295
NCI-H1792 | 0.247

Same assay, conditions: first compound 0.8 µM

Cell Line | relative viability
NCI-H2342 | 0.489
NCI-H727 | 0.582
NCI-H1703 | 0.12
NCI-H1993 | 0.609
NCI-H838 | 0.936
LCLC-103H | 0.665
NCI-H2126 | 1.02
EMC-BAC-2 | 1.11
NCI-H2085 | 0.847
HCC-366 | 0.281
NCI-H1666 | 0.844
NCI-H596 | 1.02
LK-2 | 0.597
NCI-H2087 | 1.35
NCI-H1648 | 0.921
H3255 | 0.906
LOU-NH91 | 0.744
ChaGo-K-1 | 0.766
HCC-44 | 0.916
NCI-H522 | 0.727
SW 900 | 0.611
NCI-H1792 | 0.544

Same assay, conditions: first compound 2.53 µM

Cell Line | relative viability
NCI-H2342 | 0.686
NCI-H727 | 0.512
NCI-H1703 | 0.114
NCI-H1993 | 0.854
NCI-H838 | 0.951
LCLC-103H | 0.647
NCI-H2126 | 0.985
EMC-BAC-2 | 1.14
NCI-H2085 | 0.968
HCC-366 | 0.151
NCI-H1666 | 0.852
NCI-H596 | 1.04
LK-2 | 0.342
NCI-H2087 | 1.15
NCI-H1648 | 0.818
H3255 | 0.942
LOU-NH91 | 0.775
ChaGo-K-1 | 0.888
HCC-44 | 1.03
NCI-H522 | 1.11
SW 900 | 0.569
NCI-H1792 | 0.642

Same assay, conditions: first compound 8 µM

Cell Line | relative viability
NCI-H2342 | 0.563
NCI-H727 | 0.76
NCI-H1703 | 0.134
NCI-H1993 | 0.943
NCI-H838 | 0.985
LCLC-103H | 0.718
NCI-H2126 | 1.08
EMC-BAC-2 | 1.14
NCI-H2085 | 0.954
HCC-366 | 0.247
NCI-H1666 | 0.946
NCI-H596 | 0.916
LK-2 | 0.403
NCI-H2087 | 1.24
NCI-H1648 | 0.825
H3255 | 0.957
LOU-NH91 | 0.781
ChaGo-K-1 | 0.886
HCC-44 | 1.02
NCI-H522 | 0.887
SW 900 | 0.75
NCI-H1792 | 0.833

Compound: Cn1c(=O)n(-c2ccc(C(C)(C)C#N)cc2)c2c3cc(-c4cnc5ccccc5c4)ccc3ncc21 [Dactolisib] + Cc1nc(NC(=O)N2CCC[C@H]2C(N)=O)sc1-c1ccnc(C(C)(C)C(F)(F)F)c1 [Alpelisib] (partner 2 µM)
Experiment: as above
Conditions: first compound 0.002 µM
Outline: as §1

Cell Line | relative viability
NCI-H727 | 0.601
EBC-1 | 0.832
NCI-H1703 | 0.205
NCI-H1993 | 0.711
SK-LU-1 | 1.03
NCI-H838 | 0.926
LCLC-103H | 1.01
NCI-H520 | 1.11
NCI-H2126 | 0.751
EMC-BAC-2 | 0.802
NCI-H2085 | 1.05
Calu-6 | 0.99
HCC-366 | 0.329
NCI-H1666 | 1.08
NCI-H596 | 0.461
LK-2 | 0.934
NCI-H2087 | 1.17

Cell Line | relative viability
SK-MES-1 | 1.06
H3255 | 0.767
COR-L23 | 0.8
COR-L 105 | 1.02
IA-LM | 0.636
LOU-NH91 | 0.623
HCC-44 | 0.907
A549 | 0.966
NCI-H2009 | 1.21
NCI-H661 | 0.823
SW 1573 | 0.94
NCI-H1299 | 1.07
NCI-H2228 | 0.786
NCI-H1792 | 0.783
NCI-H2023 | 0.54
NCI-H1563 | 0.851

Same assay, conditions: first compound 0.006325 µM

Cell Line | relative viability
NCI-H727 | 0.525
EBC-1 | 0.742
NCI-H1703 | 0.329
NCI-H1993 | 0.561
SK-LU-1 | 0.94
NCI-H838 | 0.704
LCLC-103H | 0.943
NCI-H520 | 0.657
NCI-H2126 | 0.702
EMC-BAC-2 | 0.708
NCI-H2085 | 0.762
Calu-6 | 0.897
HCC-366 | 0.369
NCI-H1666 | 0.83
NCI-H596 | 0.474
LK-2 | 1.03
NCI-H2087 | 0.994

Cell Line | relative viability
SK-MES-1 | 0.842
H3255 | 0.709
COR-L23 | 0.646
COR-L 105 | 0.915
IA-LM | 0.663
LOU-NH91 | 0.665
HCC-44 | 0.722
A549 | 0.715
NCI-H2009 | 1.19
NCI-H661 | 0.6
SW 1573 | 0.784
NCI-H1299 | 1.08
NCI-H2228 | 0.461
NCI-H1792 | 0.671
NCI-H2023 | 0.56
NCI-H1563 | 0.86

Same assay, conditions: first compound 0.02 µM

Cell Line | relative viability
NCI-H727 | 0.4
EBC-1 | 0.58
NCI-H1703 | 0.34
NCI-H1993 | 0.754
SK-LU-1 | 0.779
NCI-H838 | 0.699
LCLC-103H | 0.95
NCI-H520 | 0.753
NCI-H2126 | 0.639
EMC-BAC-2 | 0.69
NCI-H2085 | 0.758
Calu-6 | 0.694
HCC-366 | 0.401
NCI-H1666 | 0.806
NCI-H596 | 0.386
LK-2 | 0.793
NCI-H2087 | 0.805

Cell Line | relative viability
SK-MES-1 | 0.833
H3255 | 0.653
COR-L23 | 0.419
COR-L 105 | 1.12
IA-LM | 0.793
LOU-NH91 | 0.669
HCC-44 | 0.601
A549 | 0.614
NCI-H2009 | 1.14
NCI-H661 | 0.62
SW 1573 | 0.682
NCI-H1299 | 1.1
NCI-H2228 | 0.421
NCI-H1792 | 0.549
NCI-H2023 | 0.553
NCI-H1563 | 0.706

Same assay, conditions: first compound 0.06325 µM

Cell Line | relative viability
NCI-H727 | 0.291
EBC-1 | 0.243
NCI-H1703 | 0.267
NCI-H1993 | 0.694
SK-LU-1 | 0.363
NCI-H838 | 0.287
LCLC-103H | 0.673
NCI-H520 | 0.263
NCI-H2126 | 0.518
EMC-BAC-2 | 0.542
NCI-H2085 | 0.437
Calu-6 | 0.401
HCC-366 | 0.175
NCI-H1666 | 0.506
NCI-H596 | 0.322
LK-2 | 0.526
NCI-H2087 | 0.574

Cell Line | relative viability
SK-MES-1 | 0.474
H3255 | 0.481
COR-L23 | 0.199
COR-L 105 | 0.436
IA-LM | 0.179
LOU-NH91 | 0.496
HCC-44 | 0.337
A549 | 0.146
NCI-H2009 | 0.676
NCI-H661 | 0.484
SW 1573 | 0.322
NCI-H1299 | 0.829
NCI-H2228 | 0.198
NCI-H1792 | 0.165
NCI-H2023 | 0.147
NCI-H1563 | 0.605

Same assay, conditions: first compound 0.2 µM

Cell Line | relative viability
NCI-H727 | 0.304
EBC-1 | 0.207
NCI-H1703 | 0.216
NCI-H1993 | 0.684
SK-LU-1 | 0.276
NCI-H838 | 0.283
LCLC-103H | 0.539
NCI-H520 | 0.194
NCI-H2126 | 0.425
EMC-BAC-2 | 0.374
NCI-H2085 | 0.405
Calu-6 | 0.338
HCC-366 | 0.134
NCI-H1666 | 0.402
NCI-H596 | 0.259
LK-2 | 0.416
NCI-H2087 | 0.668

Cell Line | relative viability
SK-MES-1 | 0.406
H3255 | 0.314
COR-L23 | 0.149
COR-L 105 | 0.297
IA-LM | 0.186
LOU-NH91 | 0.471
HCC-44 | 0.3
A549 | 0.083
NCI-H2009 | 0.532
NCI-H661 | 0.225
SW 1573 | 0.33
NCI-H1299 | 0.905
NCI-H2228 | 0.234
NCI-H1792 | 0.125
NCI-H2023 | 0.153
NCI-H1563 | 0.588
